Results on 19 compounds are retold here after patent US20240246946A1, “MODULATORS OF TREX1” (Constellation Pharmaceuticals, Inc., priority 2021, published 2024).

The experiment has as its target T1, human TREX2 (residues M44-A279) (Homo sapiens, UniProt Q9BQ50).
T1 construct: human TREX2 (residues M44-A279, expressed in E. coli); made in house; host or cells: E. coli
T1 sequence (Q9BQ50 44-279 isoform Q9BQ50-1): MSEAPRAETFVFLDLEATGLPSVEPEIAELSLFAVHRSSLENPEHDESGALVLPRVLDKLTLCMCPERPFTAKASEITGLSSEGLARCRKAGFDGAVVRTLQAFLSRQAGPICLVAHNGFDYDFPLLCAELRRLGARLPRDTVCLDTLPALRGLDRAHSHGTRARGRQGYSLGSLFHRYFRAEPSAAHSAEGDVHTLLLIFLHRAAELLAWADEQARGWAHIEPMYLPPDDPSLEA
Description: hTREX2 Biochemical Assay (fluorescence, dsDNA substrate degradation). To be noted: biochemical selectivity for hTREX1 vs hTREX2. The procedure, abridged:
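N-His-Tev E. coli enzyme (50 pM) pre-incubated with compound 4 h at 25 °C, then 60 nM TEX615/quencher dsDNA added; 18 h at 25 °C, pH 7.4 Tris buffer with 5 mM MgCl2, 1.0% DMSO. EDTA-quenched; fluorescence 570 ex/615 em from liberated fluorophore, 10-point dose-response.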
Regarding `Cc1nn(C)cc1C(c1cc(F)ccc1C#N)C(C)c1nc(C(=O)Nc2cnoc2)c(O)c(=O)n1C` (single isomer, unassigned) [Example 57 D1E2], the “hTREX1 vs hTREX2 selectivity” value is reported as “C (C = >50 fold selective for hTREX1)”.
With `Cc1cncc(C(c2ccccc2C#N)C(C)c2nc(C(=O)Nc3cnoc3)c(O)c(=O)n2C)n1` (single isomer, unassigned) [Example 53 D1E2] the entry was “C (C = >50 fold selective for hTREX1)”; with `Cc1cc(C(c2cc(F)ccc2C#N)C(C)c2nc(C(=O)Nc3cnoc3)c(O)c(=O)n2C)n(C)n1` (single isomer, unassigned) [Example 111 D1E2], “B (B = 25 to 50-fold selective for hTREX1)”.
In the case of `Cc1cnc(C(c2cc(F)ccc2C#N)C(C)c2nc(C(=O)Nc3cnoc3)c(O)c(=O)n2C)cn1` (single isomer, unassigned) [Example 115 D1E2] it was “B (B = 25 to 50-fold selective for hTREX1)”.
With `Cc1ncc(C(c2ccccc2C#N)C(C)c2nc(C(=O)Nc3cnoc3)c(O)c(=O)n2C)nc1C` (single isomer, unassigned) [Example 81 D1E2] the entry was “C (C = >50 fold selective for hTREX1)”; with `CC(c1nc(C(=O)Nc2cnoc2)c(O)c(=O)n1C)C(c1cnn(C(C)C)c1)c1ccccc1C#N` (single isomer, unassigned) [Example 105 D1E2], “B (B = 25 to 50-fold selective for hTREX1)”.
For `CC(c1nc(C(=O)Nc2cnoc2)c(O)c(=O)n1C)C(c1cnn(C)c1)c1ccccc1Cl` (single isomer, unassigned) [Example 77 D1E1], the “hTREX1 vs hTREX2 selectivity” value was “C (C = >50 fold selective for hTREX1)”.
In the case of `C[C@H](c1nc(C(=O)Nc2cnoc2)c(O)c(=O)n1C)[C@@H](c1cc(F)ccc1C#N)c1cn(C)nc1C#N` [Example 59 D1E2] it was “C (C = >50 fold selective for hTREX1)”.
In the case of `CCn1c(C(C)C(c2cnn(C)c2)c2ccccc2C#N)nc(C(=O)Nc2cnoc2)c(O)c1=O` (single isomer, unassigned) [Example 149 D1E2] it was “C (C = >50 fold selective for hTREX1)”; in that of `CC(c1nc(C(=O)Nc2cnoc2)c(O)c(=O)n1C)C(c1cnn(C)c1)c1ccccc1C#N` (single isomer, unassigned) [Example 2 D1E1], “C (C = >50 fold selective for hTREX1)”; in that of `CC(c1nc(C(=O)Nc2cnoc2)c(O)c(=O)n1C)C(c1cnn(CC2CC2)c1)c1ccccc1C#N` (single isomer, unassigned) [Example 23 D1E2], “C (C = >50 fold selective for hTREX1)”.
In the case of `CC(c1nc(C(=O)Nc2cnoc2)c(O)c(=O)n1C)C(c1ccccc1C#N)c1cn(C)nc1C#N` (single isomer, unassigned) [Example 10 D1E1] it was “C (C = >50 fold selective for hTREX1)”; in that of `CC(c1nc(C(=O)Nc2cnoc2)c(O)c(=O)n1C)C(c1cnn(C)c1)c1cc(F)ccc1C#N` (single isomer, unassigned) [Example 14 D1E2], “C (C = >50 fold selective for hTREX1)”.
On to `Cc1ncc(C(c2ccccc2Cl)C(C)c2nc(C(=O)Nc3cnoc3)c(O)c(=O)n2C)nc1C` (single isomer, unassigned) [Example 125 D1E2], for which the “hTREX1 vs hTREX2 selectivity” value is given as “B (B = 25 to 50-fold selective for hTREX1)”.
With `CC(c1nc(C(=O)Nc2cnoc2)c(O)c(=O)n1C)C(c1ccccc1C#N)c1cn(C)nc1F` (single isomer, unassigned) [Example 91 D1E1] the entry was “B (B = 25 to 50-fold selective for hTREX1)”; with `Cc1nc(C)c(C(c2ccccc2C#N)C(C)c2nc(C(=O)Nc3cnoc3)c(O)c(=O)n2C)nc1C` (single isomer, unassigned) [Example 122 D1E1], “C (C = >50 fold selective for hTREX1)”; with `CCn1cc(C(c2ccc(F)cc2C#N)C(C)c2nc(C(=O)Nc3cnoc3)c(O)c(=O)n2C)cn1` (single isomer, unassigned) [Example 16 D1E1], “C (C = >50 fold selective for hTREX1)”.
With `Cc1ncc(C(c2cc(F)ccc2C#N)C(C)c2nc(C(=O)Nc3cnoc3)c(O)c(=O)n2C)nc1C` (single isomer, unassigned) [Example 124 D1E2] the entry was “B (B = 25 to 50-fold selective for hTREX1)”.
In the case of `CCn1cc(C(c2ccccc2C#N)C(C)c2nc(C(=O)Nc3cnoc3)c(O)c(=O)n2C)cn1` (single isomer, unassigned) [Example 13 D1E1], the “hTREX1 vs hTREX2 selectivity” value is reported as “C (C = >50 fold selective for hTREX1)”.
